{"source": "patent US20030129678A1", "about": "“Methods, pharmaceutical formulations and kits for identification of subjects at risk for cancer” (priority 1999, published 2003)", "key": {"Nb2 lymphoma": {"test_system": "Nb2 lymphoma", "conditions": "cited from earlier work"}, "K-562 leukemia": {"test_system": "K-562 leukemia", "conditions": "cited from earlier work"}, "[1]": {"test_system": "normal murine bone marrow cells", "conditions": "cited from earlier work"}, "[2]": {"test_system": "LNCaP prostate carcinoma cells", "conditions": "cited from earlier work"}, "[3]": {"test_system": "mouse P815 mastocytoma tumor cells", "assay": "In vitro cytotoxicity (51Cr release), primed and activated mouse macrophages against P815 cells", "conditions": "mouse macrophages (IC-21); priming with PMA (1 μM), activation with CCPA (1 μM)", "method": "(§1) B-16 melanoma cells are washed with serum free RPMI medium by centrifugation. 25-30 μCi of Na ^51Cr is diluted to 1 ml of RPMI and transferred to the melanoma cells suspension. The melanoma cells are incubated with Na ^51Cr at 37° C. for 1 hour. The unincorporated radioactivity is removed by centrifugation at 1000×g for 10 minutes. The melanoma cells are allowed to leak for 2 hours and then washed again. The final suspension is diluted in RPMI. The cell number is counted in a hemocytometer.\n(§2) Macrophages are washed with medium containing 100 mM MgCl2, 2 U/ml adenosine deaminase and 10% fetal bovine serum. Macrophages are then challenged with 1 μM PMA in the above medium for 2 hours and then stimulated with different concentrations of (0-1 μM) of 2-chloro-N^6-cyclopentyl adenosine (CCPA) for 30 minutes. The macrophages are then incubated with ^51Cr-labelled B-16 melanoma cells at a ratio of 20:1. Six hours later, a fraction of the supernatant is aspirated and counted in a gamma counter.\n(§3) Total releasable counts are measured by lysing the melanoma cells in hypotonic medium.\n(§4) The results are expressed as percentage (%) ^51Cr release as follows: [formula]\nThis same protocol is repeated, except that P815 mouse mastocytoma tumor cells are used instead of the B-16 melanoma cells."}, "[4]": {"test_system": "mouse B-16 melanoma cells", "assay": "In vitro cytotoxicity (51Cr release), primed and activated mouse macrophages against B-16 melanoma cells", "conditions": "priming with PMA (1 μm), activation with CCPA (lam)", "method": "as §1, §2, §3, §4\nPercentage ^51 Cr release is a measure of the lysing of cells (i.e., killing of cells), and is therefore an indicia of cytotoxicity."}, "[5]": {"test_system": "A375 human melanoma tumor cells", "assay": "In vitro cytotoxicity (51Cr release), primed and activated human macrophages against A375 cells", "conditions": "human macrophages (SC hematopoietic cell line and a healthy volunteer); priming with PMA (1 μm), activation with CCPA (1 μm)", "method": "as §1, §2, §3, §4"}, "TNF-α": {"test_system": "TNF-α", "assay": "Functional experiments: TNF-α release from macrophages (ELISA)", "format": "cell-based, mouse", "procedure": "Macrophages are then challenged with 1 μM PMA in the above medium for 2 hours and then stimulated with different concentrations of (0-1 μM) of 2-chloro-N^6-cyclopentyl adenosine (CCPA) at 37° C. for 1-6 hours. The supernatant is collected and the TNF-α levels are estimated by commercially available ELISA kits (R & D Systems, Minneapolis, Minn.)."}, "A1 adenosine receptors": {"target": "T1, A1 adenosine receptors (Mus musculus, UniProt Q60612)", "T1 sequence (Q60612 1-326)": "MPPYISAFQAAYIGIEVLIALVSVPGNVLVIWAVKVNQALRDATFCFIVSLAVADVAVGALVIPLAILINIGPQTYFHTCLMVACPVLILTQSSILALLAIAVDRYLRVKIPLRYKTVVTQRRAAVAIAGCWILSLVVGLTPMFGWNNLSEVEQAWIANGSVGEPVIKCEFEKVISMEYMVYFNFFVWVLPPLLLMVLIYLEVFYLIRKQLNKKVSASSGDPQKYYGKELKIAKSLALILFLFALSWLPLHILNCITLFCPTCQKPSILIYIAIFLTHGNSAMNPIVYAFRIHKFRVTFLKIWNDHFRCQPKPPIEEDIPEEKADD", "assay": "Competition experiments  against 125I-BWA844U in macrophage membranes", "format": "binding", "procedure": "Non-specific binding is determined in presence of 1 mM theophylline. Membrane bound radioactivity is separated by filtration over a cell harvester. The data is analyzed by non-linear regression analysis using GraphPad prism software and the Ki value is calculated."}, "[6]": {"target": "T2, A1 adenosine receptor expression (Homo sapiens, UniProt P30542)", "T2 construct": "This same protocol is repeated using membranes from human macrophages (SC cells)", "T2 sequence (P30542 1-326)": "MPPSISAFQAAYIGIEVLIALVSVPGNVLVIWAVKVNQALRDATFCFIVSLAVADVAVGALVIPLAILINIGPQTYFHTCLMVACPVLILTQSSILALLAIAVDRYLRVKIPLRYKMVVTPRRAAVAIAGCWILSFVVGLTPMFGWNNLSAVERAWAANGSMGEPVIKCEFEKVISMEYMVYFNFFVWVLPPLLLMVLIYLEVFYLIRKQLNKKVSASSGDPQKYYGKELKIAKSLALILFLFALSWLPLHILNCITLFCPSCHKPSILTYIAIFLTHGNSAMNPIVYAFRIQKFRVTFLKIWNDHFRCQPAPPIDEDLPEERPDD", "assay": "Saturation binding in human macrophages (SC) after cisplatin treatment", "format": "cell-based", "conditions": "human macrophages (SC, ATCC); cisplatin 2.5 μM for 24 hours", "procedure": "Incubation of the macrophage fractions with the A1 adenosine receptor ligand ^125I-BWA844U (see Patel et al., J. Pharmacol. Exp. Ther. 33:585 (1988) in concentrations ranging from 1.25-20 nM was carried out at 37° C. for 1 hour. Non-specific binding is determined in the presence of 1 mM theophylline. Following incubation, membrane bound radioactivity is separated by filtration over a cell harvester and counted in a gamma counter. The data is analyzed by non-linear regression using GraphPad Prism software. Thc Bmax and kd values are calculated from the analyzed data.\nThis same protocol is repeated using membranes from human macrophages (SC cells)."}}}
{"compound": "Nc1ncnc2c1ncn2[C@@H]1O[C@H](CO)[C@@H](O)[C@H]1O", "note": "[adenosine]", "values": [{"measurement": "tumor cell growth", "setting": "Nb2 lymphoma", "value": "inhibits tumor cell growth"}, {"measurement": "tumor cell growth", "setting": "K-562 leukemia", "value": "inhibits tumor cell growth"}, {"measurement": "proliferation", "setting": "[1]", "value": "stimulating proliferation"}, {"measurement": "tumor cell growth", "setting": "[2]", "value": "inhibits tumor cell growth"}]}
{"compound": "OC[C@H]1O[C@@H](n2cnc3c(NC4CCCC4)nc(Cl)nc32)[C@H](O)[C@@H]1O", "note": "[CCPA, 2-chloro-N^6-cyclopentyladenosine]", "values": [{"measurement": "cytotoxicity for mouse P815 mastocytoma tumor cells", "setting": "[3]", "value": "cytotoxic"}, {"measurement": "cytotoxicity of mouse B-16 melanoma cells", "setting": "[4]; macrophages from LPS-resistant mice (WBC264-9C, ATCC)", "value": 20, "unit": "%"}, {"measurement": "cytotoxicity of mouse B-16 melanoma cells", "setting": "[4]; macrophages from LPS-sensitive mice (IC-21, ATCC)", "value": 50, "unit": "%"}, {"measurement": "cytotoxicity to A375 human melanoma tumor cells", "setting": "[5]", "value": "cytotoxic"}, {"measurement": "TNF-α release in WBC264-9C macrophages compared with IC-21 macrophages", "setting": "TNF-α; priming with PMA 1 μM, activation with CCPA 0-1 μM, 1-6 hours", "value": "lower"}]}
{"compound": "N.N.[Cl][Pt][Cl]", "note": "[cisplatin]", "values": [{"measurement": "effect of pretreatment on affinity of WBC264-9C macrophage membranes for MCP-1", "setting": "A1 adenosine receptors; cisplatin 2.5 μM for 24 hours", "value": "increases the affinity"}, {"measurement": "increase of A1 adenosine receptor expression (Bmax)", "setting": "[6]", "value": "approximately three-fold"}, {"measurement": "effect of pretreatment on TNF-α release from WBC264-9C macrophages", "setting": "TNF-α; cisplatin 2.5 μM for 24 hours, then PMA and CCPA", "value": "increases TNF-α release"}]}
{"compound": "MCP-1: human recombinant monocyte chemotactic protein, chemoattractive for monocytes", "values": [{"measurement": "affinity (Ki) in membranes from WBC264-9C macrophages compared with IC-21 macrophages", "setting": "A1 adenosine receptors; competition with 0.1-0.2 nM 125I-BWA844U", "value": "lower"}]}
